The assay concerns the target T1, human Cav2.2 (composed of the subunits α1, β3 and α2δ) (Homo sapiens, UniProt Q00975).
T1 construct: expressed in transfected cells
As to the kind of experiment: FLIPR assay (TSA201 cells stably transfected with human Cav2.2 and human Kir2.3, FLUO-4 Ca2+ signal, KCl depolarization). In kind it is cell-based. The settings on record: 70 mM KCl depolarization, average value. Summed up:
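TSA201 cells co-expressing Cav2.2 (α1, β3, α2δ) and Kir2.3 were loaded with FLUO-4 for 1 h at room temperature. Compound in HBSS with 1% DMSO was preincubated 15 min, then cells were depolarized with 70 mM final KCl (with CaCl2 and HEPES) and the Ca2+ fluorescence was read on FLIPR.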
T1 sequence (Q00975 whole entry): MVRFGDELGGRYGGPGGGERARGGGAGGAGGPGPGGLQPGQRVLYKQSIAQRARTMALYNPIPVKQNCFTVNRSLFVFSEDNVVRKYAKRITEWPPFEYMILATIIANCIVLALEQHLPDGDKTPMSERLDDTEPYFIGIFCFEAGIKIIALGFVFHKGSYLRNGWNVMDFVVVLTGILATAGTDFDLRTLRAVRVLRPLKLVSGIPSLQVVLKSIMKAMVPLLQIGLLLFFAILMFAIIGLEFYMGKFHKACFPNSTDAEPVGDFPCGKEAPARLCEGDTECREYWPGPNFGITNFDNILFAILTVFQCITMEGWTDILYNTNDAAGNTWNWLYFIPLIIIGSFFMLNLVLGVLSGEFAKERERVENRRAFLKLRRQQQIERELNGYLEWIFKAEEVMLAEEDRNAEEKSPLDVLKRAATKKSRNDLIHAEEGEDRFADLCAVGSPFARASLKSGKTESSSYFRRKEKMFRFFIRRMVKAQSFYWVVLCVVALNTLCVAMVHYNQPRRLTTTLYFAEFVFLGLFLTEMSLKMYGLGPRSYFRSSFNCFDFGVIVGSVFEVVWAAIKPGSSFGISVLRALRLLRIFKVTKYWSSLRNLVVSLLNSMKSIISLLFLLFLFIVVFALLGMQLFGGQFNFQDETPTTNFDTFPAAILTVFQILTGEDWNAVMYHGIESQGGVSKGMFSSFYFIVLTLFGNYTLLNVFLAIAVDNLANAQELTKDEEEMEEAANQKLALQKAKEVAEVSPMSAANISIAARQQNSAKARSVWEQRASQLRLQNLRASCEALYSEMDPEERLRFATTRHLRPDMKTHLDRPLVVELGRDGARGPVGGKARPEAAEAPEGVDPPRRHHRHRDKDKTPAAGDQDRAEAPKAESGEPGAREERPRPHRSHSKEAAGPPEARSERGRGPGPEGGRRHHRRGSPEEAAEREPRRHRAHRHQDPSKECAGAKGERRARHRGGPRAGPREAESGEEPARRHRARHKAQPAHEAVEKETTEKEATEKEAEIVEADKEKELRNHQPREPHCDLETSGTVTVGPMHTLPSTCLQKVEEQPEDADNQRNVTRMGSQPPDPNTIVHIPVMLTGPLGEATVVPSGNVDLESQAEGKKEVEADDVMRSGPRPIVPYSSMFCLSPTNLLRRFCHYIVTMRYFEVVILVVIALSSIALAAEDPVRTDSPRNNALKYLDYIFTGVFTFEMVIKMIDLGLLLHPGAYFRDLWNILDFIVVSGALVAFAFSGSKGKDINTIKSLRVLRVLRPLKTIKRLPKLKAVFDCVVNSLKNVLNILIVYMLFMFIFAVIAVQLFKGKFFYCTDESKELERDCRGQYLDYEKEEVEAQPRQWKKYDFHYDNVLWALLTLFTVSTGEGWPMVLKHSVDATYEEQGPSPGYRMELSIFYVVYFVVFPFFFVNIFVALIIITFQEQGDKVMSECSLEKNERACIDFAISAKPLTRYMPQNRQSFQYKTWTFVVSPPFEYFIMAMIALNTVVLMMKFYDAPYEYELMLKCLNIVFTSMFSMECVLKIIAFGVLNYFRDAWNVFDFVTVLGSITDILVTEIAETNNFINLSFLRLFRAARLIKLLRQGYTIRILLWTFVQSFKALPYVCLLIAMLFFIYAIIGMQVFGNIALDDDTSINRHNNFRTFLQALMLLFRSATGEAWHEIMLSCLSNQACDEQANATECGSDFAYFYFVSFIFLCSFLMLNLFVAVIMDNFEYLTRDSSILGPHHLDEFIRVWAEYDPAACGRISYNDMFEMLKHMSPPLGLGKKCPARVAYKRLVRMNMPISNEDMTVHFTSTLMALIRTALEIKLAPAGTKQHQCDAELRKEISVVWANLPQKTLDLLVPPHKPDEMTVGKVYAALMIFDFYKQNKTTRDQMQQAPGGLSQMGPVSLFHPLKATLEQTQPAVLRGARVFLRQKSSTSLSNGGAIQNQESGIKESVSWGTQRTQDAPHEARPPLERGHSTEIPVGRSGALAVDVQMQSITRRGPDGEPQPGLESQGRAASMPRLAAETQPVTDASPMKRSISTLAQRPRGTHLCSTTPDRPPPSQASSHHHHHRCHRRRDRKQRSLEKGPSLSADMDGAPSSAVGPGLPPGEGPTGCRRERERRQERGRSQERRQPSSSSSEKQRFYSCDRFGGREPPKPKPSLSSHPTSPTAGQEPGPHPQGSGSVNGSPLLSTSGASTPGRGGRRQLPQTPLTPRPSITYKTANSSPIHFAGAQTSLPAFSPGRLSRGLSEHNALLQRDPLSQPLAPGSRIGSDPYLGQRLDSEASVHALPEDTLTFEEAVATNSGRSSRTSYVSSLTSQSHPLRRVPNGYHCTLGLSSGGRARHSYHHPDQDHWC
T1 sequence (P54284 whole entry partner): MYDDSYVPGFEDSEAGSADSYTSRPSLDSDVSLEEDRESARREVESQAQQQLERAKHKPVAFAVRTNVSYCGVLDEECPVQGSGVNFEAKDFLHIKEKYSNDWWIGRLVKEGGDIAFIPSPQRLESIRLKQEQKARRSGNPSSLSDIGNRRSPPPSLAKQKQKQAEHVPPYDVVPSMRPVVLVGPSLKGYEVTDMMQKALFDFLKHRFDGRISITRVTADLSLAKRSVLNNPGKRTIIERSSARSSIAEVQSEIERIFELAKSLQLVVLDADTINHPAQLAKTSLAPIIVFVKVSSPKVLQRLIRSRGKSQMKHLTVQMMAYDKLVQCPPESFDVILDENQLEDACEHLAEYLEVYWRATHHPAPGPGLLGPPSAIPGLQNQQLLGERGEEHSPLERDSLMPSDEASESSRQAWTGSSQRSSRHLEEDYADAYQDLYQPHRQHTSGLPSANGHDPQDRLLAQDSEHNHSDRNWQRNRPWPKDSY
T1 sequence (P54289 25-946 partner limits assumed): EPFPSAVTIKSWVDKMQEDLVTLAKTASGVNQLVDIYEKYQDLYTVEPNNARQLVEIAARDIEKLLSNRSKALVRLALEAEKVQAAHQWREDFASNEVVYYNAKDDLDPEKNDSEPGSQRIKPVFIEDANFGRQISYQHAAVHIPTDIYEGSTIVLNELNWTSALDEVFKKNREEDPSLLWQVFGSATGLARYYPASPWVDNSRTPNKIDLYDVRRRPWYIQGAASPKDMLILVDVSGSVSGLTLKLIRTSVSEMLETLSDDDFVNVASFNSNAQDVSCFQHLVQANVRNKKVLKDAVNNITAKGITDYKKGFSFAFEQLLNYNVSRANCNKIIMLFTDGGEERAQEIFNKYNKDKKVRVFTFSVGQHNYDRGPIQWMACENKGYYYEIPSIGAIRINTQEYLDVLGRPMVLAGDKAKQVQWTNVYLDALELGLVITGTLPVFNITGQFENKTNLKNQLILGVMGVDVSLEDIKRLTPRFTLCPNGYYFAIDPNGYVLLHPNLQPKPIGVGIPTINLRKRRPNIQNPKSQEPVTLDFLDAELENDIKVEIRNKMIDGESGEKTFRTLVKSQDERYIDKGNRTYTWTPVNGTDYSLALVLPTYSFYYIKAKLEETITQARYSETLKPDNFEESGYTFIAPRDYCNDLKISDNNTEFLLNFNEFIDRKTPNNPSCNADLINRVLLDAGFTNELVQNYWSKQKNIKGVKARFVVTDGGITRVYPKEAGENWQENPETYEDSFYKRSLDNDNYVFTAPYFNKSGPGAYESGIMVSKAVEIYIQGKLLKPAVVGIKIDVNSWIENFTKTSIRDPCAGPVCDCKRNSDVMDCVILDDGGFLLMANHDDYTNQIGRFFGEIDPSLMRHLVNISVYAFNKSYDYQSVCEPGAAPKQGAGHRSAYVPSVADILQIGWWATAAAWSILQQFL
T1 sequence (P54289 947-1103 partner limits assumed): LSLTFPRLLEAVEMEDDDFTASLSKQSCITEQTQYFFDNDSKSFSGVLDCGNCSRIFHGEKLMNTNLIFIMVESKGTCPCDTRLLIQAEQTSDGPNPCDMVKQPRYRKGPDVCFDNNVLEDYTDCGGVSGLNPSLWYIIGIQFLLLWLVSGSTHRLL
As to `CC(C)(C)C(=O)N(Cc1ccc(Cl)nc1)c1ccc(F)cc1` [Compound 195, N-[(6-chloropyridin-3-yl)methyl]-N-(4-fluorophenyl)-2,2-dimethylpropanamide], 10.1 µM corresponded to half-maximal inhibition (IC50). Turning to `CC(C)(C)C(=O)N(Cc1ccc(N2CCOCC2)nc1)c1ccc(F)cc1` [Compound 196, N-(4-fluorophenyl)-2,2-dimethyl-N-[(6-morpholin-4-ylpyridin-3-yl)methyl]propanamide], the IC50 (in general, the midpoint of a concentration-inhibition curve) was determined as 13.8 µM. In the case of `CCN(c1nc(CN(C(C)=O)C2CCCCC2)cs1)C1CC1` [Compound 197, N-cyclohexyl-N-({2-[cyclopropyl(ethyl)amino]-1,3-thiaozl-4-yl}methyl)acetamide], half-maximal inhibition (IC50) was put at 5.7 µM. Turning to `CCN(c1nc(CN(C(=O)C2CCCCC2)C2CCCCC2)cs1)C1CC1` [Compound 198, N-cyclohexyl-N-({2-[cyclopropyl(ethyl)amino]-1,3-thiazol-4-yl}methyl)cyclohexanecarboxamide], the IC50 was 3.3 µM.

`CC(=O)N(Cc1csc(N2CCOCC2)n1)C1CCCCC1` [Compound 199, N-cyclohexyl-N-[(2-morpholin-4-yl-1,3-thiazol-4-yl)methyl]acetamide] displayed an IC50 of 27.2 µM. With `O=C(C1CCCCC1)N(Cc1csc(N2CCOCC2)n1)C1CCCCC1` [Compound 200, N-cyclohexyl-N-[(2-morpholin-4-yl-1,3-thiazol-4-yl)methyl]cyclohexanecarboxamide], the IC50 was determined as 6.3 µM. As for `O=C(Cc1ccccc1)N(Cc1csc(N2CCOCC2)n1)C1CCCCC1` [Compound 201, N-cyclohexyl-N-[(2-morpholin-4-yl-1,3-thiazol-4-yl)methyl]-2-phenylacetamide], the IC50 was determined as 9.7 µM. `CC(C)(C)OC(=O)c1cccc(-c2ccc(CN(C(=O)C(C)(C)C)c3ccc(F)cc3)cn2)c1` [Compound 202, tert-butyl 3-(5-{[(2,2-dimethylpropanoyl)(4-fluorophenyl)amino]methyl}pyridin-2-yl)benzoate] had an IC50 of 11.1 µM. Consider `CC(C)(C)C(=O)N(Cc1ccc(-c2cccc(C(=O)O)c2)nc1)c1ccc(F)cc1` [Compound 203, 3-(5-{[(2,2-dimethylpropanoyl)(4-fluorophenyl)amino]methyl}pyridin-2-yl)benzoic acid], for which the IC50 was 39 µM. The compound `CC(C)(C)C(=O)N(Cc1csc(N2CCOCC2)n1)C1CCCCC1` [Compound 204, N-cyclohexyl-2,2-dimethyl-N-[(2-morpholin-4-yl-1,3-thiazol-4-yl)methyl]propanamide] had an IC50 of 11.4 µM. Regarding `CCN(c1nc(CN(C(=O)C(C)(C)C)C2CCCCC2)cs1)C1CC1` [Compound 205, N-cyclohexyl-N-({2-[cyclopropyl(ethyl)amino]-1,3-thiazol-4-yl}methyl)-2,2-dimethylpropanamide], the IC50 was 2.1 µM. `CC(C)(C)C(=O)N(Cc1csc(C2CCCCC2)n1)c1ccc(F)cc1` [Compound 206, N-[(2-cyclohexyl-1,3-thiazol-4-yl)methyl]-N-(4-fluorophenyl)-2,2-dimethylpropanamide] had a concentration for half-maximal inhibition (IC50) of 6.1 µM.

`O=C(C1CC1)N(Cc1csc(N2CCOCC2)n1)c1ccc(F)cc1` [Compound 207, N-(4-fluorophenyl)-N-[(2-morpholin-4-yl-1,3-thiazol-4-yl)methyl]cyclopropanecarboxamide] came in with an IC50 of 23.9 µM. As for `CC(C)C(=O)N(Cc1csc(N2CCOCC2)n1)c1ccc(F)cc1` [Compound 208, N-(4-fluorophenyl)-2-methyl-N-[(2-morpholin-4-yl-1,3-thiazol-4-yl)methyl]propanamide], the figure is 22.2 µM; as for `CC(C)(C)OC(=O)N1CCC(c2nc(CN(C(=O)C(C)(C)C)c3ccc(F)cc3)cs2)CC1` [Compound 209, tert-butyl 4-(4-{[(2,2-dimethylpropanoyl)(4-fluorophenyl)amino]methyl}--1,3-thiazol-2-yl)piperidine-1-carboxylate], 2.7 µM; as for `CCN(c1nc(CN(C(C)=O)c2ccc(F)cc2)cs1)C1CC1` [Compound 210, N-({2-[cyclopropyl(ethyl)amino]-1,3-thiazol-4-yl}methyl)-N-(4-fluorophenyl)acetamide], 9.1 µM. As for `CCN(c1nc(CN(C(=O)C2CCCCC2)c2ccc(F)cc2)cs1)C1CC1` [Compound 211, N-({2-[cyclopropyl(ethyl)amino]-1,3-thiazol-4-yl}methyl)-N-(4-fluorophenyl)cyclohexanecarboxamide], the figure is 2.4 µM. For the compound `CC(C)(C)C(=O)N(CCc1csc(N2CCOCC2)n1)c1ccc(F)cc1` [Compound 212, N-(4-flurophenyl)-2,2-dimethyl-N-[2-(2-morpholin-4-yl-1,3-thiazol-4-yl)ethyl]propanamide], inhibition was half-maximal at 5.9 µM (IC50). With `CC(C)(C)C(=O)N(CCCc1csc(N2CCOCC2)n1)c1ccc(F)cc1` [Compound 213, N-(4-fluorophenyl)-2,2-dimethyl-N-[3-(2-morpholin-4-yl-1,3-thiazol-4-yl)propyl]propanamide], the IC50 is 3.8 µM. `CC(=O)N(Cc1csc(Br)n1)c1ccc(F)cc1` [Compound 214, N-[(2-bromo-1,3-thiazol-4-yl)methyl]-N-(4-fluorophenyl)acetamide]: the IC50 was 48.7 µM. As for `CC(=O)N(Cc1ccc(Cl)nc1)c1ccc(F)cc1` [Compound 215, N-[(6-chloropyridin-3-yl)methyl]-N-(4-fluorophenyl)acetamide], the IC50 came to 21.4 µM.

In the case of `CC(=O)N(Cc1csc(N2CCN(C)CC2)n1)c1ccc(F)cc1` [Compound 216, N-(4-fluorophenyl)-N-{[2-(4-methylpiperazin-1-yl)-1,3-thiazol-4-yl]methyl}acetamide], the IC50 amounted to 29.4 µM. Regarding `CC(=O)N(Cc1csc(N2CCCN(C)CC2)n1)c1ccc(F)cc1` [Compound 217, N-(4-fluorophenyl)-N-{[2-(4-methyl-1,4-diazepan-1-yl)-1,3-thiazol-4-yl]methyl}acetamide], the IC50 turned out to be 29.5 µM.

Compound `CC(=O)N(Cc1csc(N2CCOCC2)n1)c1ccc(F)cc1` [Compound 218, N-(4-fluorophenyl)-N-[(2-morpholin-4-yl-1,3-thiaozl-4-yl)methyl]acetamide] gave an IC50 of 23.4 µM. Next, `CCN(CC)c1nc(CN(C(C)=O)c2ccc(F)cc2)cs1` [Compound 219, N-{[2-(diethylamino)-1,3-thiaozl-4-yl]methyl}-N-(4-fluorophenyl)acetamide]: 8.7 µM; `CC(=O)N(Cc1csc(N2CCC(C#N)CC2)n1)c1ccc(F)cc1` [Compound 220, N-{[2-(4-cyanopiperidin-1-yl)-1,3-thiazol-4-yl]methyl}-N-(4-fluorophenyl)acetamide]: 16.6 µM. `CC(=O)N(Cc1csc(N(C)CCO)n1)c1ccc(F)cc1` [Compound 221, N-(4-fluorophenyl)-N-({2-[(2-hydroxyethyl)(methyl)amino]-1,3-thiazol-4-yl}methyl)acetamide] registered an IC50 of 37 µM. `CC(=O)N(Cc1csc(N2CCC(O)CC2)n1)c1ccc(F)cc1` [Compound 222, N-(4-fluorophenyl)-N-{[2-(4-hydroxypiperidin-1-yl)-1,3-thiazol-4-yl]methyl}acetamide]: half-maximal inhibition (IC50) was put at 22.4 µM. As for `CC(=O)N(Cc1csc(N2CCCC(O)C2)n1)c1ccc(F)cc1` (centres unmarked) [Compound 223, N-(4-fluorophenyl)-N-{[2-(3-hydroxypiperidin-1-yl)-1,3-thiazol-4-yl]methyl}acetamide], the figure is 31.4 µM.
